Source: article PMC3510080, “Identification of Compounds with Anti-Proliferative Activity against Trypanosoma brucei brucei Strain 427 by a Whole Cell Viability Based HTS Campaign” (PLoS Neglected Tropical Diseases, 2012)
Read-outs that look alike come from different tables or passages of the source.

How the values were obtained:
[1] = system: L. donovani strain MHOM/ET/67/L82 axenic amastigotes; test: L. donovani axenic amastigote fluorescence assay; SI versus L6 cells; type: cell-based, Leishmania donovani; details: for IC50: axenic amastigotes, 70 h, read-out: Compound activity L.D (IC50); for Selectivity Index L.D: relative to L6 cells
Procedure: L6 rat skeletal myoblasts, [29] were purchased from the American Type Culture Collection (ATCC, Rockville, MD, USA; ATCC number CRL 1458). This cell line was used for cytotoxicity testing to calculate an SI against T.b. rhodesiense and screened alongside the T.b. rhodesiense, P. falciparum, T. cruzi and L. donovani assays. L6 were also the host cells for the T. cruzi assay. Assays were performed in 96-well microtiter plates, each well containing 100 µl of RPMI 1640 medium supplemented with 1% L-glutamine (200 mM), 10% FCS, and 4000 L6 cells. Serial drug dilutions of eleven 3-fold dilution steps covering a range from 100 to 0.002 µg/ml were prepared. After 70 hours of incubation the plates were inspected under an inverted microscope to assure growth of the controls and sterile conditions. Ten µl of resazurin solution (resazurin, 12.5 mg in 100 ml double-distilled water) was then added to each well and the plates incubated for another 2 hours. Then the plates were read with a Spectramax Gemini XS microplate fluorometer (Molecular Devices Cooperation, Sunnyvale, CA, USA) using an excitation wavelength of 536 nm and an emission wavelength of 588 nm. Data was analysed using the microplate reader software Softmax Pro (Molecular Devices, USA). Podophyllotoxin was used as a positive control in the assay.
Amastigotes of L. donovani strain MHOM/ET/67/L82 were grown in axenic culture at 37°C in SM medium at pH 5.4 supplemented with 10% heat-inactivated FCS under an atmosphere of 5% CO2 in air. One hundred µl of culture medium containing 10^5 amastigotes from axenic culture with or without a serial drug dilution were seeded in 96-well microtitre plates. Serial drug dilutions of eleven 3-fold dilution steps covering a range from 100 to 0.002 µg/ml were prepared. After 70 hours of incubation the plates were inspected under an inverted microscope to assure growth of the controls and sterile conditions. Ten µl of resazurin solution (12.5 mg resazurin dissolved in 100 ml distilled water) were then added to each well and the plates incubated for another 2 hours. The plates were then read with a Spectramax Gemini XS microplate fluorometer (Molecular Devices, USA) using an excitation wavelength of 536 nm and an emission wavelength of 588 nm. Data was analysed using the software Softmax Pro (Molecular Devices, USA). Decrease of fluorescence ( = inhibition) was expressed as percentage of the fluorescence of control cultures and plotted against the drug concentrations. From the sigmoidal inhibition curves the IC50 values were calculated. Miltefosine served as a known drug control in this assay.

HEK293 cells = test: HEK293 Alamar Blue viability estimation assay; type: cell-based, human; details: for IC50: Homo sapiens, HEK293
Procedure: T.b. brucei lister 427 cells were maintained in log phase growth in 25 cm^2 tissue culture flasks (Corning, NY, USA) by sub-culturing at either 24 or 48 hour intervals. Cells were grown in HMI-9 medium, supplemented with 10% fetal calf serum (FCS) and 100 IU/ml penicillin/streptomycin (Invitrogen, Carlsbad, California, USA) with incubation at 5% CO2 at 37°C in humidified conditions. HEK293 cells were maintained in high glucose DMEM with L-glutamine, supplemented with 1× non-essential amino acids (NEAA; Invitrogen, USA) and 1 mM sodium pyruvate. Growth conditions were in 5% CO2 at 37°C, under humidified conditions.
Cells at 80% confluence were harvested and diluted in growth medium (high glucose DMEM supplemented with 10% FCS) to 7.27×10^4 cells/ml. Under sterile conditions, 55 µl of diluted cells per well were added to a black, clear bottomed 384-well lidded plate (BD Biosciences, Bedford, MA, USA) with a Multidrop liquid handler (Thermo Scientific, Barrington, IL, USA). Incubation times, compound additions and plate read were as per the trypanosome viability assay, with the exception that Alamar Blue was diluted in HEK293 growth media before addition, and incubation of Alamar Blue at 37°C, in 5% CO2, was for 4 hours, followed by incubation at room temperature for 20 hours. The activity of compounds against HEK293 cells was used to calculate the SI of mammalian to T.b. brucei cells. The control compound for HEK293 cells was puromycin (Calbiochem, USA).
Compounds identified from primary screening were retested against both T.b. brucei and HEK293 cells in duplicate and at varying concentrations to obtain a dose-response curve. Thus, a 5 µl sample of fresh compound stock solution (5 mM in DMSO) was cherry picked into 384-well plates and diluted 1∶10 in dilution medium (high glucose DMEM without FCS). Serial dilutions of these samples were then prepared in the same media by a Minitrak robotic liquid handler (Perkin Elmer, USA). […] A screening dose of 10.4 µM was included in the dilution series to enable reconfirmation of primary screening T.b. brucei activity.
The DMSO working concentration in the serial dilutions was maintained at 5%, giving a final assay concentration of 0.42% DMSO, except for the 41.7 µM test compound solution, where as previously stated the corresponding DMSO concentration was 0.83% v/v. […] Therefore the 41.7 µM test compound sample with 0.83% v/v DMSO was not used in the T.b. brucei assay and thus the top test compound concentration in this assay was 20.8 µM.
Compound activity in the retest campaign was calculated as percentage inhibition in relation to positive and negative controls, in the same manner as the primary screening campaign. The positive controls, pentamidine (2 µM final concentration) for T.b. brucei and puromycin (8 µM final concentration) for HEK293, were both screened in whole 384-well control plates. Whole 384-well plate controls were included after every batch of 20 compound plates, and were comprised of half a plate of negative control and half a plate of positive control. The negative control was the vehicle, […]. The negative control was also included in column 24 of each compound assay plate to determine signal variation from plate to plate and to calculate compound activity. The exception was the 41.7 µM compound dose used in the HEK293 assay. In these plates column 24 contained 0.83% DMSO as a negative control. A separate 384-well plate containing a 13 point dose-response of the reference compounds puromycin, pentamidine and diminazene, in triplicate, was also included per 20 compound test plate batch to estimate assay sensitivity.
These compounds were retested as in dose for N of three replicates, as described above for both T.b. brucei and HEK293.

[2] = pentamidine 1 µM, diminazene 40 µM

SMILES	IC50 ([1]; Leishmania donovani, L6, 70 h)	Selectivity Index L.D [1]	IC50 (HEK293 cells; read-out: Restest IC50 HEK)	other results
CC(C)(C)C(=O)NCCc1csc(-c2cccc(F)c2)n1 [Compound 1]	46.1 ± 22.4 µM	1.35	41.7 µM	–
O=C(NCCc1n[nH]c(-c2ccc(F)cc2)n1)c1cccc(F)c1 [Compound 2]	47.3 ± 0.324 µM	2.53	41.7 µM	–
CCOc1ccc(OCc2ccc(C(=O)N3CCCC(C)C3)cc2)cc1 (centres unmarked) [Compound 3]	16.1 ± 1.7 µM	3.09	41.7 µM	–
Cc1cc(O)nc(-n2nc(C)cc2NC(=O)C2CCCC2)n1 [Compound 4]	0.488 ± 0.154 µM	1.84	–	–
CCS(=O)(=O)N1CCCc2ccc(NS(=O)(=O)c3ccccc3F)cc21 [Compound 5]	6.6 ± 1.56 µM	3.29	–	–
CCC(C)NC(=O)c1nc(-c2ccccc2)cnc1N (centres unmarked) [Compound 6]	34 ± 5.6 µM	0.525	–	–
O=C(Nc1ccc(Cl)c(-c2nc3ncccc3o2)c1)c1ccco1 [Compound 7]	1.8 µM	–	> 41.7 µM	IC50 [1]: 1.82 ± 0.277 µM
CCc1ccccc1N=C(NCCN1CCOCC1)NC(=O)c1ccccc1 [Compound 8]	> 263 µM	–	–	–
N=C(N)c1ccc(OCCCCCOc2ccc(C(=N)N)cc2)cc1 [Pentamidine, pentamidine, reference compound]	–	–	–	activity in the HEK293 assay at the doses screened, rescreening (HEK293 cells; [2]): neither pentamidine nor diminazene displayed activity; activity in the HEK293 assay at the doses screened, retest campaign (HEK293 cells; [2]): Neither pentamidine nor diminazene displayed activity
COc1ccc(C[C@H](N)C(=O)N[C@H]2[C@@H](O)[C@H](n3cnc4c(N(C)C)ncnc43)O[C@@H]2CO)cc1 [Puromycin, puromycin, reference compound]	–	–	–	IC50 (HEK293 cells; reference compound, read-out: IC50 against HEK293, retest screening campaign): 1.12 ± 0.155 µM; IC50 (HEK293 cells; reference compound, read-out: IC50 in HEK293 assay, rescreening of resynthesized compounds): 0.518 ± 0.0281 µM
